Source: patent US4567143A, “Process for preparing 4'-deschlororebeccamycin” (Bristol-Myers Company, priority 1985, dated 1986)
Values after ≈ are worked out from the molar mass of the structure shown.

Experiments:
E. cloacae A9656 = assay: Antibacterial activity, serial two-fold agar dilution; format: cell-based; conditions: Enterobacter cloacae, read-out: Minimum Inhibitory Concentration (MIC)
Method: (§1) The antibacterial activity of 4'-deschlororebeccamycin was determined against a number of gram-positive and gram-negative organisms by the serial two-fold agar dilution method. The results are shown in Table 5 below in comparison with the activity of rebeccamycin.

E. cloacae A9659 = assay: as above; format: cell-based; conditions: Enterobacter cloacae, read-out: Minimum Inhibitory Concentration (MIC)
Method: as §1

K. pneumoniae A20468 = assay: as above; format: cell-based; conditions: Klebsiella pneumoniae, read-out: Minimum Inhibitory Concentration (MIC)
Method: as §1

K. pneumoniae A9664 = assay: as above; format: cell-based; conditions: Klebsiella pneumoniae, read-out: Minimum Inhibitory Concentration (MIC)
Method: as §1

[1] = system: List. monocytogenes A15121; assay: as above; format: cell-based; conditions: Listeria monocytogenes, read-out: Minimum Inhibitory Concentration (MIC)
Method: as §1

[2] = system: List. monocytogenes A20025; assay: as above; format: cell-based; conditions: Listeria monocytogenes, read-out: Minimum Inhibitory Concentration (MIC)
Method: as §1

M. luteus A9547 = assay: as above; format: cell-based; conditions: Micrococcus luteus, read-out: Minimum Inhibitory Concentration (MIC)
Method: as §1

M. morganii A15153 = assay: as above; format: cell-based; conditions: Morganella morganii, read-out: Minimum Inhibitory Concentration (MIC)
Method: as §1

P. aeruginosa A21213 = assay: as above; format: cell-based; conditions: Pseudomonas aeruginosa, read-out: Minimum Inhibitory Concentration (MIC)
Method: as §1

P. aeruginosa A9843A = assay: as above; format: cell-based; conditions: Pseudomonas aeruginosa, read-out: Minimum Inhibitory Concentration (MIC)
Method: as §1

P. mirabilis A9900 = assay: as above; format: cell-based; conditions: Proteus mirabilis, read-out: Minimum Inhibitory Concentration (MIC)
Method: as §1

P. rettgeri A22424 = assay: as above; format: cell-based; conditions: Providencia rettgeri, read-out: Minimum Inhibitory Concentration (MIC)
Method: as §1

P. vulgaris A21559 = assay: as above; format: cell-based; conditions: Proteus vulgaris, read-out: Minimum Inhibitory Concentration (MIC)
Method: as §1

[3] = system: S. aureus (Pen-Res) A9606; assay: as above; format: cell-based; conditions: Staphylococcus aureus, read-out: Minimum Inhibitory Concentration (MIC)
Method: as §1

S. aureus A9537 = assay: as above; format: cell-based; conditions: Staphylococcus aureus, read-out: Minimum Inhibitory Concentration (MIC)
Method: as §1

S. coli A15119 = assay: as above; format: cell-based; conditions: read-out: Minimum Inhibitory Concentration (MIC)
Method: as §1

S. coli A20341-1 = assay: as above; format: cell-based; conditions: read-out: Minimum Inhibitory Concentration (MIC)
Method: as §1

S. faecalis A20688 = assay: as above; format: cell-based; conditions: Enterococcus faecalis, read-out: Minimum Inhibitory Concentration (MIC)
Method: as §1

S. marcescens A20019 = assay: as above; format: cell-based; conditions: Serratia marcescens, read-out: Minimum Inhibitory Concentration (MIC)
Method: as §1

S. pneumoniae A9585 = assay: as above; format: cell-based; conditions: Streptococcus pneumoniae, read-out: Minimum Inhibitory Concentration (MIC)
Method: as §1

S. pyogenes A9604 = assay: as above; format: cell-based; conditions: Streptococcus pyogenes, read-out: Minimum Inhibitory Concentration (MIC)
Method: as §1

P-388 leukemia = assay: Effect on transplanted mouse leukemia P-388; format: in vivo, mouse (CDF1 F mice); conditions: IP, single injection day 1; for MST % T/C: >125 considered significant tumor inhibition; for Average weight change, day 5: control 0.6; for MST (median survival time): control 11.0
Method: 4'-Deschlororebeccamycin was also tested against the transplanted mouse leukemia P-388 and the results are shown below in Table 6. The methodology used generally followed the protocols of the National Cancer Institute [Cancer Chemotherapy Rep. Part 3, 3, 1-103 (1972)]. The essential experimental details are given at the bottom of Table 6.
Tumor inoculum: 10^6 ascites cells, ip
Treatment: Single injection on day 1 given i.p.
Evaluation: MST = median survival time
Effect: % T/C = (MST treated/MST control) × 100
Criteria: % T/C >125 considered significant tumor inhibition
Control: Saline (0.5 ml) given once daily i.p. for 5 days

Solubility = format: physicochemical
[4] = system: gram-positive and gram-negative organisms; assay: Antimicrobial activity (general statement); format: cell-based
Method: as §1

SMILES: COC1C(CO)OC(n2c3c(Cl)cccc3c3c4c(c5c6ccccc6[nH]c5c32)C(=O)NC4=O)C(O)C1O (stereo not drawn) [4'-Deschlororebeccamycin]
- MIC (E. cloacae A9656): > 250 µg/mL
- MIC (E. cloacae A9659): > 250 µg/mL
- MIC (K. pneumoniae A20468): > 250 µg/mL
- MIC (K. pneumoniae A9664): > 250 µg/mL
- MIC [1]: 32 µg/mL (≈ 59.7 µM)
- MIC [2]: 63 µg/mL (≈ 118 µM)
- MIC (M. luteus A9547): 1 µg/mL (≈ 1.87 µM)
- MIC (M. morganii A15153): > 250 µg/mL
- MIC (P. aeruginosa A21213): > 250 µg/mL
- MIC (P. aeruginosa A9843A): > 250 µg/mL
- MIC (P. mirabilis A9900): > 250 µg/mL
- MIC (P. rettgeri A22424): > 250 µg/mL
- MIC (P. vulgaris A21559): > 250 µg/mL
- MIC [3]: > 250 µg/mL
- MIC (S. aureus A9537): 2 µg/mL (≈ 3.73 µM)
- MIC (S. coli A15119): > 250 µg/mL
- MIC (S. coli A20341-1): > 250 µg/mL
- MIC (S. faecalis A20688): 16 µg/mL (≈ 29.9 µM)
- MIC (S. marcescens A20019): > 250 µg/mL
- MIC (S. pneumoniae A9585): 32 µg/mL (≈ 59.7 µM)
- MIC (S. pyogenes A9604): 32 µg/mL (≈ 59.7 µM)
- MST % T/C (P-388 leukemia; 16 mg/kg/inj): 164%
- Average weight change, day 5 (P-388 leukemia; 16 mg/kg/inj): -0.9 gm
- MST (median survival time) (P-388 leukemia; 16 mg/kg/inj): 18.0 days
- MST % T/C (P-388 leukemia; 32 mg/kg/inj): 141%
- Average weight change, day 5 (P-388 leukemia; 32 mg/kg/inj): -0.8 gm
- MST (median survival time) (P-388 leukemia; 32 mg/kg/inj): 15.5 days
- MST % T/C (P-388 leukemia; 64 mg/kg/inj): 136%
- Average weight change, day 5 (P-388 leukemia; 64 mg/kg/inj): -0.8 gm
- MST (median survival time) (P-388 leukemia; 64 mg/kg/inj): 15.0 days
- MST % T/C (P-388 leukemia; 128 mg/kg/inj): 159%
- Average weight change, day 5 (P-388 leukemia; 128 mg/kg/inj): -0.6 gm
- MST (median survival time) (P-388 leukemia; 128 mg/kg/inj): 17.5 days
- MST % T/C (P-388 leukemia; 256 mg/kg/inj): 136%
- Average weight change, day 5 (P-388 leukemia; 256 mg/kg/inj): -1.5 gm
- MST (median survival time) (P-388 leukemia; 256 mg/kg/inj): 15.0 days
- MST % T/C (P-388 leukemia; 512 mg/kg/inj): 141%
- Average weight change, day 5 (P-388 leukemia; 512 mg/kg/inj): -1.0 gm
- MST (median survival time) (P-388 leukemia; 512 mg/kg/inj): 15.5 days
- solubility in dimethylsulfoxide (Solubility; dimethylsulfoxide): soluble
- solubility in water (Solubility; water): insoluble
- antimicrobial activity [4]: exhibits antimicrobial activity

SMILES: CO[C@H]1[C@H](O)[C@@H](O)[C@H](n2c3c(Cl)cccc3c3c4c(c5c6cccc(Cl)c6[nH]c5c32)C(=O)NC4=O)O[C@@H]1CO [Rebeccamycin]
- MIC (E. cloacae A9656): > 250 µg/mL
- MIC (E. cloacae A9659): > 250 µg/mL
- MIC (K. pneumoniae A20468): > 250 µg/mL
- MIC (K. pneumoniae A9664): > 250 µg/mL
- MIC [1]: 32 µg/mL (≈ 56.1 µM)
- MIC [2]: 32 µg/mL (≈ 56.1 µM)
- MIC (M. luteus A9547): 0.5 µg/mL (≈ 0.877 µM)
- MIC (M. morganii A15153): > 250 µg/mL
- MIC (P. aeruginosa A21213): > 250 µg/mL
- MIC (P. aeruginosa A9843A): > 250 µg/mL
- MIC (P. mirabilis A9900): > 250 µg/mL
- MIC (P. rettgeri A22424): > 250 µg/mL
- MIC (P. vulgaris A21559): > 250 µg/mL
- MIC [3]: > 250 µg/mL
- MIC (S. aureus A9537): 0.5 µg/mL (≈ 0.877 µM)
- MIC (S. coli A15119): > 250 µg/mL
- MIC (S. coli A20341-1): > 250 µg/mL
- MIC (S. faecalis A20688): 8 µg/mL (≈ 14 µM)
- MIC (S. marcescens A20019): > 250 µg/mL
- MIC (S. pneumoniae A9585): > 125 µg/mL
- MIC (S. pyogenes A9604): > 125 µg/mL
- MST % T/C (P-388 leukemia; 16 mg/kg/inj): 136%
- Average weight change, day 5 (P-388 leukemia; 16 mg/kg/inj): -0.8 gm
- MST (median survival time) (P-388 leukemia; 16 mg/kg/inj): 15.0 days
- MST % T/C (P-388 leukemia; 32 mg/kg/inj): 118%
- Average weight change, day 5 (P-388 leukemia; 32 mg/kg/inj): -0.6 gm
- MST (median survival time) (P-388 leukemia; 32 mg/kg/inj): 13.0 days
- MST % T/C (P-388 leukemia; 64 mg/kg/inj): 136%
- Average weight change, day 5 (P-388 leukemia; 64 mg/kg/inj): 0.3 gm
- MST (median survival time) (P-388 leukemia; 64 mg/kg/inj): 15.0 days
- MST % T/C (P-388 leukemia; 128 mg/kg/inj): 132%
- Average weight change, day 5 (P-388 leukemia; 128 mg/kg/inj): 0.2 gm
- MST (median survival time) (P-388 leukemia; 128 mg/kg/inj): 14.5 days
- MST % T/C (P-388 leukemia; 256 mg/kg/inj): 136%
- Average weight change, day 5 (P-388 leukemia; 256 mg/kg/inj): -0.3 gm
- MST (median survival time) (P-388 leukemia; 256 mg/kg/inj): 15.0 days
- MST % T/C (P-388 leukemia; 512 mg/kg/inj): 155%
- Average weight change, day 5 (P-388 leukemia; 512 mg/kg/inj): -1.4 gm
- MST (median survival time) (P-388 leukemia; 512 mg/kg/inj): 17.0 days
